Results reported in patent US9101628B2, “Methods and composition of treating a flaviviridae family viral infection” (The Board of Trustees of the Leland Stanford Junior …, priority 2007, dated 2015).
Read-outs that look alike come from different tables or passages of the source.

Legend:
hERG channel = hERG channel (Homo sapiens, UniProt Q12809)
HuR = target: T1, HuR (Homo sapiens, UniProt Q15717); assay: HuR RNA binding by microfluidics (specificity of hits); settings: 0.1 mM
T1 construct: The open reading frames (ORF) of HuR and HuD were obtained from the ORFeome library of cDNA clones (Open biosystems); V5-his (C); made in house; host or cells: cell-free expression on the microfluidic device, from pcDNA-Dest 40 carrying the ORFeome clone (Open Biosystems)
Protocol: Specificity of hits identified in the small molecule screen: To determine the specificity of the hits identified in the small molecule screen, the HuR protein (one of the human RNA binding protein used to validate our RNA binding assay) was selected. […] Binding of HuR to the consensus 4A RNA sequence was tested in the presence of the inhibitory molecules shown to inhibit RNA binding by NS4B. […] Similarly, 0.1 mM of the identified compounds didn't have an inhibitory effect on binding of HuR to the 3′ terminus of the negative HCV RNA strand.

W55R NS4B mutant = target: T2, W55R NS4B mutant (Hepatitis C virus genotype 1a, UniProt P27958, A1893V/D1840G/F1898S/L1839I/R1905H/S1900A/W1766R); assay: In vitro microfluidic RNA binding assay, W55R NS4B mutant; design: species or system HCV; settings: 10 nM clemizole
T2 construct: made in house; host or cells: in vitro transcription/translation, inferred from the way wild-type NS4B-GFP was made; not repeated for the mutant

R214Q NS4B mutant HCV = assay: Luciferase reporter linked replication assay, R214Q mutant; format: cell-based
[1] = test system: replicon harboring the A156T mutation; assay: Whole cell RNA electroporation, SCH503034 resistant clone; format: cell-based, HCV
W55R mutant J6/JFH RNA = assay: Luciferase reporter-linked replication assay, W55R mutant; format: cell-based, HCV
From the text: Two of the clemizole-resistant NS4B mutants were characterized in detail. The first, W55R is depicted in FIG. 6a. It involves the substitution of an arginine for the tryptophan at amino acid 55 within a predicted cytoplasmically-oriented segment of NS4B. This mutation is sufficient to confer a clemizole-resistant phenotype in cells: Huh7.5 cells transfected with either whole cell RNA extracted from the W55R mutant cells (FIG. 6b) or with in vitro-transcribed J6/JFH RNA encoding this point mutation and a linked luciferase reporter gene (FIG. 6c) were unaffected by 10 μM clemizole.
The plasmid FL-J6/JFH-5′C19Rluc2AUbi that consists of the full-length HCV genome and expresses Renilla luciferase was a gift from Dr. Charles M. Rice. The W55R mutation was introduced into this plasmid by site-directed mutagenesis (using the QuikChange kit (Stratagene)).
Medium was changed daily.

[2] = test system: subgenomic Bart 79I HCV RNA replicon (genotype 1b); assay: microbe, parasite or virus in culture; format: cell-based; settings: Hepatitis C virus; genotype 1b luciferase reporter, 72 hr; read-out: EC50 HCV replication
[3] = test system: genotype 1b subgenomic HCV replicon (Bart 79I); format: cell-based
HCV (genotype 4) = assay: Treatment of patients chronically infected with HCV; format: in vivo, human; settings: clemizole 100 milligrams p.o. BID alone, 4 weeks, 3 patients
Protocol: After the first four weeks of clemizole monotherapy, pegylated interferon (180 micrograms Pegasus (Roche) s.q. per week) was added.

[4] = test system: replicon harboring the W55R mutation; assay: Whole cell RNA electroporation, clemizole resistant clone; format: cell-based, HCV; settings: 10 μM clemizole; 2.5 μM SCH503034
Protocol: Whole cell RNA was extracted from clemizole-resistant replicon clones and from untreated replicon cells using TRIzol reagent (Invitrogen). Equal amounts of whole cell RNA (50 μg) were electroporated into Huh7.5 cells as described above. Cells were grown under G418 selection in the presence or absence of clemizole for 3 weeks. The number of colonies was determined using Image J (NIH) following fixation and staining with Crystal violet.
Cells transfected with whole cell RNA extracted from wild type replicon cells were sensitive to both drugs.

[5] = test system: infectious HCV clone (J6/JFH); assay: Real-time PCR assay of HCV replication in HCV-infected Huh7.5 cells; format: cell-based; settings: real-time PCR (FIG. 8)
Protocol: 5×10^4 Huh7.5 ells were infected with cell culture-grown HCV titered at 1.4×10^4 TCID50/ml, as described. 2 hours after infection, cells were washed three times in culture medium. Cells were then treated daily with various concentrations of clemizole. After 72 hours, samples were subjected to the viability assay described above, following which TRIzol Reagent (Invitrogen) was added and total cell RNA was extracted in triplicates according to the manufacturer's instructions. Reverse transcription was then performed using random hexamers and Superscript II reverse transcriptase (Invitrogen, Carlsbad, Calif.). Real-time PCR was performed on the resulting cDNA to quantify the amounts of HCV and actin RNA (in separate reactions) in each sample. Standards were made using an in vitro-transcribed HCV RNA and human actin standard (Applied Biosystems, Foster City, Calif.). HCV was quantified using primers […] (SEQ ID NO 8) and […] (SEQ ID NO 9) and probe 6-carboxyfluorescein-[…]-6 (SEQ ID NO 10) carboxytetramethylrhodamine. Actin was quantified using beta-actin control reagents (Applied Biosystems) according to the manufacturer's instructions. HCV RNA level was adjusted to actin level and normalized relative to untreated samples.

[6] = target: NS4B (binding to 3′ terminus negative strand HCV RNA) (Hepatitis C virus genotype 1a, UniProt P27958); assay: In vitro microfluidic NS4B RNA binding assay; settings: wild type NS4B, 10 nM clemizole
[7] = Alamar Blue-based cell viability assay; design: species or system human; settings: human
Protocol: (§1) Total volume per well is 100 μl.
(§2) (or until there is a color change).

Huh7.5 cells = assay: Alamar Blue-based cell viability assay; design: species or system human; settings: at antiviral concentrations, Alamar Blue, 72 hr
Protocol: as §1, §2

Row | Structure (SMILES) | IC50 (hERG channel) [µM] | effect on binding of HuR to 4A RNA sequence (HuR) | reduction of RNA binding (W55R NS4B mutant) [fold] | EC50 relative to the EC50 on the wild type RNA (R214Q NS4B mutant HCV) [times] | sensitivity of Huh7.5 cells transfected with whole cell RNA from A156T clone [1] | effect on replication of W55R mutant (W55R mutant J6/JFH RNA; 10 μM clemizole) | EC50 relative to the EC50 on the wild type RNA (W55R mutant J6/JFH RNA; W55R mutant) [times] | EC50 [2] [µM] | decrease of the frequency of resistant colonies selected with 1 μM of SCH503034 ([3]; 4 μM clemizole added) [folds] | decrease of the frequency of resistant colonies selected with 1 μM of SCH503034 ([3]; 8 μM clemizole added) [folds] | HCV viral loads in serum (HCV (genotype 4)) | sensitivity of Huh7.5 cells transfected with whole cell RNA from W55R clone [4] | HCV replication levels [5] | reduction of RNA binding [6] [fold] | CC50 at 72 h ([7]; genotype 1b experiments, Alamar Blue, 72 hr) [µM] | CC50 at 72 h ([7]; genotype 2a experiments, Alamar Blue-based and CellTiter-Blue assay) [µM] | cellular toxicity (Huh7.5 cells)
1 | COc1ccc(Cn2cnc3c(NS(C)(=O)=O)c(C)c(C)cc32)cc1 [Compound 106] | > 10 | – | – | – | – | – | – | – | – | – | – | – | – | – | – | – | –
2 | Clc1ccc(Cn2c(CN3CCCC3)nc3ccccc32)cc1 [clemizole] | – | No inhibitory effect | ~2 | ~5 | but not to clemizole | unaffected | 2.25 | 23 ± 7 | 6 | 18 | decreased significantly | unaffected | inhibits HCV replication | ~2 | 40 ± 5 | 35 ± 0.5 | no measurable toxicity
